This data set can be described thus: Four hours of driving-simulator combined fatigue loading after intake of tryptophan; concentration of tryptophan in plasma. Type of data set: in vivo, human.

Molecules are shown by their SMILES.

Text: Twelve healthy males who were in their twenties served as subjects. Each of the subjects was right-handed, had at least one year of experience as a licensed driver, and drove an ordinary motor vehicle at least once a week. Further, patients with sinus problems, smokers, users of drugs (such as caffeinated or spiced food products and anti-allergic drugs, which affect a central nervous system) were excluded.
The subject was subjected to driving work loading by using a driving simulator (ACCESS MASTER AM2330 manufactured by Tasknet Inc.).
In order to study an effect of tryptophan on fatigue, each of the subjects in a tryptophan group who received tryptophan before loading was subjected to four hours of simulator driving without a break, and each of the subjects in a placebo group who received a placebo before loading was subjected to four hours of simulator driving without a break. The same subject received 5 mg/kg of tryptophan or a placebo at least one week apart, and participated in the experiment.
Blood sample was taken from the subjects according to the experimental schedule shown in Table 4 so as to measure concentrations of amino acids in their plasma.

On to `N[C@@H](Cc1c[nH]c2ccccc12)C(=O)O` [tryptophan], for which the concentration at 4 h (male, human, plasma, oral, tryptophan group, 5 mg/kg tryptophan taken before loading, after four hours of simulator driving, healthy males) was 39 µM. In addition, the “concentration of tryptophan in plasma before fatigue loading” value (tryptophan group (5 mg/kg tryptophan), blood sampled before intake and before four hours of simulator driving, healthy males) is 43 µM. Also, the “change in concentration of tryptophan in plasma between before and after fatigue loading” value (tryptophan group, 5 mg/kg before loading, four hours of simulator driving, placebo group showed a significant decrease) is listed as “no significant decrease”.

The record behind these values is US20070134156A1, “Fatigue evaluation apparatus, fatigue evaluation method, and application thereof” (SOIKEN INC., priority 2004, published 2007).
